In patent publication US20130303509A1, “NAMPT INHIBITORS” (AbbVie Inc., priority 2012, published 2013):

Test system: PC3 cells
Test: NAMPT Cell Proliferation Assay
Type: cell-based
Conditions: Homo sapiens, PC-3, 120 h, 5 days incubation, cell viability by Cell Titer Glo
In short: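 Seeded at 500 cells/well in RPMI with 10% heat-inactivated FBS and left to attach overnight at 37° C, 5% CO2. Compounds were added as 10-fold dilutions […] for 5 days, then viability was read by CellTiter-Glo. IC50s came from sigmoidal fits of percent inhibition.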

SMILES | IC50 [nM]
O=C(Nc1ccc(OC2CCN(C(=O)c3ccccn3)CC2)cc1)C1CN(c2cccnn2)C1 [Example 242, 1-(pyridazin-3-yl)-N-(4-{[1-(pyridin-2-ylcarbonyl)piperidin-4-yl]oxy}phenyl)azetidine-3-carboxamide] | 9.06
O=C(Nc1ccc(OC2CCN(C(=O)c3cc(F)cc(F)c3)CC2)cc1)C1CN(c2cccnn2)C1 [Example 243, N-(4-{[1-(3,5-difluorobenzoyl)piperidin-4-yl]oxy}phenyl)-1-(pyridazin-3-yl)azetidine-3-carboxamide] | 9.28
CC(=O)N1CCC(Oc2ccc(NC(=O)C3CN(c4cccnn4)C3)cc2)CC1 [Example 244, -{4-[(1-acetylpiperidin-4-yl)oxy]phenyl}-1-(pyridazin-3-yl)azetidine-3-carboxamide] | 10.4
O=C(Nc1ccc(OC2CCN(C(=O)c3ccc(Cl)cc3)CC2)cc1)C1CN(c2cccnn2)C1 [Example 245, N-(4-{[1-(4-chlorobenzoyl)piperidin-4-yl]oxy}phenyl)-1-(pyridazin-3-yl)azetidine-3-carboxamide] | 7.06
COCC(=O)N1CCC(Oc2ccc(NC(=O)C3CN(c4cccnn4)C3)cc2)CC1 [Example 246, N-(4-{[1-(methoxyacetyl)piperidin-4-yl]oxy}phenyl)-1-(pyridazin-3-yl)azetidine-3-carboxamide] | 9.65
O=C(Nc1ccc(OC2CCN(C(=O)Cc3ccccc3F)CC2)cc1)C1CN(c2cccnn2)C1 [Example 247, N-[4-({1-[(2-fluorophenyl)acetyl]piperidin-4-yl}oxy)phenyl]-1-(pyridazin-3-yl)azetidine-3-carboxamide] | 7.98
CCC(C)(C)C(=O)N1CCC(Oc2ccc(NC(=O)C3CN(c4cccnn4)C3)cc2)CC1 [Example 248, N-(4-{[1-(2,2-dimethylbutanoyl)piperidin-4-yl]oxy}phenyl)-1-(pyridazin-3-yl)azetidine-3-carboxamide] | 6.58
O=C(Nc1ccc(OC2CCN(C(=O)c3cccs3)CC2)cc1)C1CN(c2cccnn2)C1 [Example 249, 1-(pyridazin-3-yl)-N-(4-{[1-(thiophen-2-ylcarbonyl)piperidin-4-yl]oxy}phenyl)azetidine-3-carboxamide] | 2.35
O=C(Nc1ccc(OC2CCN(C(=O)c3cccc(Cl)c3)CC2)cc1)C1CN(c2cccnn2)C1 [Example 250, N-(4-{[1-(3-chlorobenzoyl)piperidin-4-yl]oxy}phenyl)-1-(pyridazin-3-yl)azetidine-3-carboxamide] | 9.11
O=C(Nc1ccc(OC2CCN(C(=O)C3CC3)CC2)cc1)C1CN(c2cccnn2)C1 [Example 251, N-(4-{[1-(cyclopropylcarbonyl)piperidin-4-yl]oxy}phenyl)-1-(pyridazin-3-yl)azetidine-3-carboxamide] | 7.87
O=C(Nc1ccc(OC2CCN(C(=O)CC(F)(F)F)CC2)cc1)C1CN(c2cccnn2)C1 [Example 252, 1-(pyridazin-3-yl)-N-(4-{[1-(3,3,3-trifluoropropanoyl)piperidin-4-yl]oxy}phenyl)azetidine-3-carboxamide] | 9.51
CC(C)C(=O)N1CCC(Oc2ccc(NC(=O)C3CN(c4cccnn4)C3)cc2)CC1 [Example 253, N-(4-{[1-(2-methylpropanoyl)piperidin-4-yl]oxy}phenyl)-1-(pyridazin-3-yl)azetidine-3-carboxamide] | 8.09
CC(C)(C)CC(=O)N1CC(Oc2ccc(NC(=O)C3CN(c4ccnnc4)C3)cc2)C1 [Example 254, N-(4-{[1-(3,3-dimethylbutanoyl)azetidin-3-yl]oxy}phenyl)-1-(pyridazin-4-yl)azetidine-3-carboxamide] | 12
O=C(Nc1ccc(OC2CN(C(=O)C3CCCCC3)C2)cc1)C1CN(c2ccnnc2)C1 [Example 255, N-(4-{[1-(cyclohexylcarbonyl)azetidin-3-yl]oxy}phenyl)-1-(pyridazin-4-yl)azetidine-3-carboxamide] | 24.1
O=C(Nc1ccc(OC2CN(C(=O)CC3CCOCC3)C2)cc1)C1CN(c2ccnnc2)C1 [Example 256, 1-(pyridazin-4-yl)-N-(4-{[1-(tetrahydro-2H-pyran-4-ylacetyl)azetidin-3-yl]oxy}phenyl)azetidine-3-carboxamide] | 145
CC1CC1C(=O)N1CC(Oc2ccc(NC(=O)C3CN(c4ccnnc4)C3)cc2)C1 (centres unmarked) [Example 257, N-[4-({1-[(2-methylcyclopropyl)carbonyl]azetidin-3-yl}oxy)phenyl]-1-(pyridazin-4-yl)azetidine-3-carboxamide] | 76.1
O=C(Nc1ccc(OC2CN(C(=O)CC(F)(F)F)C2)cc1)C1CN(c2ccnnc2)C1 [Example 258, 1-(pyridazin-4-yl)-N-(4-{[1-(3,3,3-trifluoropropanoyl)azetidin-3-yl]oxy}phenyl)azetidine-3-carboxamide] | 309
O=C(Nc1ccc(OC2CN(C(=O)C3CCCC3)C2)cc1)C1CN(c2ccnnc2)C1 [Example 259, N-(4-{[1-(cyclopentylcarbonyl)azetidin-3-yl]oxy}phenyl)-1-(pyridazin-4-yl)azetidine-3-carboxamide] | 72.6

SMILES | IC50 [nM]
CC(C)(C)CC(=O)N1CCC(Oc2ccc(NC(=O)C3CN(c4ccnnc4)C3)cc2)CC1 [Example 260, N-(4-{[1-(3,3-dimethylbutanoyl)piperidin-4-yl]oxy}phenyl)-1-(pyridazin-4-yl)azetidine-3-carboxamide] | 74.6
O=C(Nc1ccc(OC2CN(C(=O)C3CCC3)C2)cc1)C1CN(c2ccnnc2)C1 [Example 261, N-(4-{[1-(cyclobutylcarbonyl)azetidin-3-yl]oxy}phenyl)-1-(pyridazin-4-yl)azetidine-3-carboxamide] | 71.5
O=C(Nc1ccc(OC2CN(C(=O)C3CCCO3)C2)cc1)C1CN(c2ccnnc2)C1 (centres unmarked) [Example 262, 1-(pyridazin-4-yl)-N-(4-{[1-(tetrahydrofuran-2-ylcarbonyl)azetidin-3-yl]oxy}phenyl)azetidine-3-carboxamide] | 119
CC(C)CCC(=O)N1CC(Oc2ccc(NC(=O)C3CN(c4ccnnc4)C3)cc2)C1 [Example 263, N-(4-{[1-(4-methylpentanoyl)azetidin-3-yl]oxy}phenyl)-1-(pyridazin-4-yl)azetidine-3-carboxamide] | 59.5
CC(C)C(=O)N1CC(Oc2ccc(NC(=O)C3CN(c4ccnnc4)C3)cc2)C1 [Example 264, N-(4-{[1-(2-methylpropanoyl)azetidin-3-yl]oxy}phenyl)-1-(pyridazin-4-yl)azetidine-3-carboxamide] | 100
CC[C@H](C)C(=O)N1CC(Oc2ccc(NC(=O)C3CN(c4ccnnc4)C3)cc2)C1 [Example 265, N-[4-({1-[(2S)-2-methylbutanoyl]azetidin-3-yl}oxy)phenyl]-1-(pyridazin-4-yl)azetidine-3-carboxamide] | 70.1
CC(C)CC(=O)N1CCC(Oc2ccc(NC(=O)C3CN(c4ccnnc4)C3)cc2)CC1 [Example 266, N-(4-{[1-(3-methylbutanoyl)piperidin-4-yl]oxy}phenyl)-1-(pyridazin-4-yl)azetidine-3-carboxamide] | 83
COCC(=O)N1CCC(Oc2ccc(NC(=O)C3CN(c4ccnnc4)C3)cc2)CC1 [Example 267, N-(4-{[1-(methoxyacetyl)piperidin-4-yl]oxy}phenyl)-1-(pyridazin-4-yl)azetidine-3-carboxamide] | 622
O=C(Nc1ccc(OC2CCN(C(=O)CC(F)(F)F)CC2)cc1)C1CN(c2ccnnc2)C1 [Example 268, 1-(pyridazin-4-yl)-N-(4-{[1-(3,3,3-trifluoropropanoyl)piperidin-4-yl]oxy}phenyl)azetidine-3-carboxamide] | 82.9
O=C(Nc1ccc(OC2CCN(C(=O)C(F)(F)c3ccccc3)CC2)cc1)C1CN(c2ccnnc2)C1 [Example 269, N-[4-({1-[difluoro(phenyl)acetyl]piperidin-4-yl}oxy)phenyl]-1-(pyridazin-4-yl)azetidine-3-carboxamide] | 60.4
O=C(Nc1ccc(OC2CCN(C(=O)C3CCC(F)(F)CC3)CC2)cc1)C1CN(c2ccnnc2)C1 [Example 270, N-[4-({1-[(4,4-difluorocyclohexyl)carbonyl]piperidin-4-yl}oxy)phenyl]-1-(pyridazin-4-yl)azetidine-3-carboxamide] | 62.7
O=C(Nc1ccc(OC2CCN(C(=O)c3ccc(F)cc3)CC2)cc1)C1CN(c2ccnnc2)C1 [Example 271, N-(4-{[1-(4-fluorobenzoyl)piperidin-4-yl]oxy}phenyl)-1-(pyridazin-4-yl)azetidine-3-carboxamide] | 51.5
O=C(Nc1ccc(OC2CCN(C(=O)c3cscn3)CC2)cc1)C1CN(c2ccnnc2)C1 [Example 272, 1-(pyridazin-4-yl)-N-(4-{[1-(1,3-thiazol-4-ylcarbonyl)piperidin-4-yl]oxy}phenyl)azetidine-3-carboxamide] | 79.5
O=C(Nc1ccc(OC2CCN(C(=O)Cc3ccc(C(F)(F)F)cc3)CC2)cc1)C1CN(c2ccnnc2)C1 [Example 273, 1-(pyridazin-4-yl)-N-{4-[(1-{[4-(trifluoromethyl)phenyl]acetyl}piperidin-4-yl)oxy]phenyl}azetidine-3-carboxamide] | 634
O=C(Nc1ccc(OC2CCN(C(=O)c3ccc(F)c(F)c3)CC2)cc1)C1CN(c2ccnnc2)C1 [Example 274, N-(4-{[1-(3,4-difluorobenzoyl)piperidin-4-yl]oxy}phenyl)-1-(pyridazin-4-yl)azetidine-3-carboxamide] | 107
O=C(Nc1ccc(OC2CCN(C(=O)Cc3ccc(OC(F)(F)F)cc3)CC2)cc1)C1CN(c2ccnnc2)C1 [Example 275, 1-(pyridazin-4-yl)-N-{4-[(1-{[4-(trifluoromethoxy)phenyl]acetyl}piperidin-4-yl)oxy]phenyl}azetidine-3-carboxamide] | 683
O=C(Nc1ccc(OC2CCN(C(=O)Cc3ccc(F)cc3)CC2)cc1)C1CN(c2ccnnc2)C1 [Example 276, N-[4-({1-[(4-fluorophenyl)acetyl]piperidin-4-yl}oxy)phenyl]-1-(pyridazin-4-yl)azetidine-3-carboxamide] | 130
